In ChEMBL document CHEMBL1201862, “PubChem BioAssay data set” (2004):
Calls of active or inactive are those of the source.

Legend:
Caspase-9 = Caspase-9 (Homo sapiens, UniProt P55211); test: inhibitors of purified CASP9 protease – biochemical, fluorescence, plate reader, cherry-picked samples, selectivity assay for caspase-6 inhibitor project, dose response (AID 743293)
Protein RecA = target: T1, Protein RecA (Mycobacterium tuberculosis, UniProt P9WHJ3); test: Fluorescence Cell-Free Homogeneous Dose Retest to Identify Inhibitors of RecA-Intein Splicing Activity. [Related pubchem assays (depositor defined):AID2097, AID2223, AID489010, AID492950]; assay type: functional
T1 sequence (P9WHJ3 whole entry): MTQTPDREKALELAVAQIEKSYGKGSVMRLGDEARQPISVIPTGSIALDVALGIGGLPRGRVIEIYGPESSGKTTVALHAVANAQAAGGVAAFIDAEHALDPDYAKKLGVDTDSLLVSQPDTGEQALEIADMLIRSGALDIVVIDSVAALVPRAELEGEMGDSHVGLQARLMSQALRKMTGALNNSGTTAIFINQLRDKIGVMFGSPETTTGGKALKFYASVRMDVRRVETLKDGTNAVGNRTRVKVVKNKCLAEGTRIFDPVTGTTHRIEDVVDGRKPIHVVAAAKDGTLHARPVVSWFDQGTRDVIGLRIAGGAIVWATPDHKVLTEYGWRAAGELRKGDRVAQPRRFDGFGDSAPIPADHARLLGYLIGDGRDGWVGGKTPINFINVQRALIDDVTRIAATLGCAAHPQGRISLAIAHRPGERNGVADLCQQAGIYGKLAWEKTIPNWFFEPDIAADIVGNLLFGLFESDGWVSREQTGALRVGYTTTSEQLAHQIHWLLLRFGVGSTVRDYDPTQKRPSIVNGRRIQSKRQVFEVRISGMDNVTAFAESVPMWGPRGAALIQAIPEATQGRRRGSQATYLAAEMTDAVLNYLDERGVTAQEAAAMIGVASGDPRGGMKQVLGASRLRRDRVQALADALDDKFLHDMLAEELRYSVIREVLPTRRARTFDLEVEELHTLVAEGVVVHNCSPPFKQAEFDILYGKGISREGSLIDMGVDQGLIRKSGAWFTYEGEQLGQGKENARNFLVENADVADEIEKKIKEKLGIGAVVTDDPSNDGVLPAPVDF

[1] = target: T2, Mannose-6-phosphate isomerase (Homo sapiens, UniProt P34949); test: MPI inhibition at elevated mannose 6-phosphate – biochemical, fluorescence intensity, high mannose 6-phosphate, primary screen (AID 1220)
T2 sequence (P34949 whole entry): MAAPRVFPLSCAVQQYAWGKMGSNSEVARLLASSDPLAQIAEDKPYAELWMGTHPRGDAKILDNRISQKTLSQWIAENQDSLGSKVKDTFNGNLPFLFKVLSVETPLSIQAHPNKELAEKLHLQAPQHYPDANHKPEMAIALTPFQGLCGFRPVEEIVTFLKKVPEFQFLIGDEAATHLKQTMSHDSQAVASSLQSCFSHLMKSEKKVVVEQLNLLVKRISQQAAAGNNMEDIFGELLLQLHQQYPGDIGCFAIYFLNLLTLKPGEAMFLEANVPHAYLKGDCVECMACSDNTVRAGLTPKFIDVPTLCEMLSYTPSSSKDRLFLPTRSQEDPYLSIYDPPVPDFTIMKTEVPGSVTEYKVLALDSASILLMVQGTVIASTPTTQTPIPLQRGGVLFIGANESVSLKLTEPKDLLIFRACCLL

Caspase-6 = target: T3, Caspase-6 (Homo sapiens, UniProt P55212); test: inhibition of CASP6 peptide cleavage – biochemical, VEID-R110 fluorescence, cherry-pick, dose response (AID 720632)
T3 sequence (P55212 whole entry): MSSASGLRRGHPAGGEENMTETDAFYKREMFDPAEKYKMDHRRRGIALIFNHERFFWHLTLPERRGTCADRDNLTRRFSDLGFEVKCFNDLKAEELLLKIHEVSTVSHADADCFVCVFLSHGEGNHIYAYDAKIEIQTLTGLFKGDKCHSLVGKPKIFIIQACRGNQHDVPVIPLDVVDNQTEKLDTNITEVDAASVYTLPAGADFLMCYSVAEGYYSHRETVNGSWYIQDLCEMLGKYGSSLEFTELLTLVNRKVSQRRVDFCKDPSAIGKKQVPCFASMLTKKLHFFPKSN

Caspase-8 = Caspase-8 (Homo sapiens, UniProt Q14790); test: inhibitors of purified CASP8 protease – biochemical, Z-IETD-R110 fluorescence, cherry-picked samples, selectivity assay for caspase-6 inhibitor project, dose response (AID 743294)
[2] = target: T4, Replicative DNA helicase DnaB (Mycobacterium tuberculosis, UniProt P9WMR3); test: DnaB intein splicing inhibitors, dose response, biochemical, cell-free fluorescence (AID 449749); assay type: functional
T4 sequence (P9WMR3 whole entry): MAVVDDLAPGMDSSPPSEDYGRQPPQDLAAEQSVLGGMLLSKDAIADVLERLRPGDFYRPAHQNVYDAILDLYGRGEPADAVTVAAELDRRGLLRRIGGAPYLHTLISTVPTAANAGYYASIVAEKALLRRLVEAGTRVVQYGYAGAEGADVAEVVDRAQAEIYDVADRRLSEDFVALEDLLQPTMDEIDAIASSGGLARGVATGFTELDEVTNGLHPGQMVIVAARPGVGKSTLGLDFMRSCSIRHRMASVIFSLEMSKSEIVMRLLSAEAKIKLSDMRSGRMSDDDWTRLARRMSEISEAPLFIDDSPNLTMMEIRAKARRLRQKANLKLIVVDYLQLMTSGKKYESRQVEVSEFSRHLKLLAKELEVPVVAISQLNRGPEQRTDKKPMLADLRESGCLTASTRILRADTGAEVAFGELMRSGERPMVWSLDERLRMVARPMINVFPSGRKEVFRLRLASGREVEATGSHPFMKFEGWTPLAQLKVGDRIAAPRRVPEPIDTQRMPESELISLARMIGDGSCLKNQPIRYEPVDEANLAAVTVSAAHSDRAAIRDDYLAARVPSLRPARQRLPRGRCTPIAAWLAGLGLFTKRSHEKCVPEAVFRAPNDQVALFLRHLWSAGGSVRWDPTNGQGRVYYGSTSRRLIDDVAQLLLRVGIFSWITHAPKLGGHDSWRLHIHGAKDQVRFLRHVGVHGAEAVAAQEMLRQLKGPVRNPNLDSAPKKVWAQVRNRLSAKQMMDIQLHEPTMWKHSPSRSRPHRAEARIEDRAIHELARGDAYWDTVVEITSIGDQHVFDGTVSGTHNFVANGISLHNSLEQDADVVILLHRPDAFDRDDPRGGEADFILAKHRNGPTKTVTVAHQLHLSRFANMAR

[3] = Luminescence-based cell-based high throughput dose response assay to identify activators of the DAF-12 from the parasite S. stercoralis (ssDAF-12).; assay type: functional
[4] = target: T5, Oxysterols receptor LXR-beta (Homo sapiens, UniProt P55055); test: LXR agonists, Gal4 luciferase reporter, dose response, counter-screen for ssDAF-12 agonist project, cell-based, luminescence, HEK293, S. stercoralis campaign (AID 720737); assay type: functional; settings: read-out: IC50 (the source's name)
T5 sequence (P55055 whole entry): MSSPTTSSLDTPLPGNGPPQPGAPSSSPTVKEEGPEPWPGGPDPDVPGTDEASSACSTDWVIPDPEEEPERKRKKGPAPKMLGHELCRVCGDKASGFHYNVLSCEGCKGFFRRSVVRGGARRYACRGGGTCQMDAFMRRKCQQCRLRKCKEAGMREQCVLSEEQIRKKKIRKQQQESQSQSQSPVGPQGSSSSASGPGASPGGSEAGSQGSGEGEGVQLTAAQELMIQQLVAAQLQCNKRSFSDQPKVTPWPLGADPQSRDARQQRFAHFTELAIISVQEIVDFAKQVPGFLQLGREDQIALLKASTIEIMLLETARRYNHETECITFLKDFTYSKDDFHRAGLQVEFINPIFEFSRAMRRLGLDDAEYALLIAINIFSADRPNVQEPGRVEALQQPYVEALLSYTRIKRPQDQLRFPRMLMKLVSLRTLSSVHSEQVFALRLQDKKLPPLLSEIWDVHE

[5] = viability inhibitors of stage V gametocytes – luminescence, dose response (AID 1117278); assay type: functional, cell-based;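 further: gametocytes exposed to compound for 24 hours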
[6] = viability loss in human Jurkat cells – cell-based, luminescence, cytotoxicity control for P. falciparum gametocyte viability project, dose response (AID 1117277); assay type: functional;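 further: potency reflects loss of cellular ATP meaning fewer viable cells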
Cytochrome P450 3A4 = Cytochrome P450 3A4 (Homo sapiens, UniProt P08684);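 further: CYP3A4 tested as one member of a cytochrome P450 panel screen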
Cytochrome P450 2C19 = Cytochrome P450 2C19 (Homo sapiens, UniProt P33261); test: Cytochrome panel assay with activity outcomes. Panel member name: p450-cyp2c19 Compounds with AC50 equal or less than 10 uM are considered active; assay type: functional
Cytochrome P450 2D6 = Cytochrome P450 2D6 (Homo sapiens, UniProt P10635);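 further: CYP2D6 member of a cytochrome P450 panel assay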
[7] = target: Glutathione-S-transferase (Schistosoma japonicum, UniProt Q26513); test: GST-antibody interaction or FRET quenching – biochemical, TR-FRET, artefact control for Vif-APOBEC3G degradation inhibitor project, dose response (AID 1117362); assay type: functional
[8] = target: Voltage-gated inwardly rectifying potassium channel KCNH2 (Homo sapiens, UniProt Q12809); test: concentration-dependent hERG rescue from blockers – cell-based, thallium flux, dose response (AID 2121); assay type: ADME
[9] = IC50 of Artemis nuclease activity blockers – biochemical, fluorescence intensity, dose response (AID 720701); assay type: functional;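 further: Artemis endonuclease enzyme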
[10] = target: T6, Rac GTPase-activating protein 1 (Homo sapiens, UniProt Q9H0H5); test: blockers of MgcRacGAP-driven Rac1 GTP hydrolysis – biochemical, ADP Hunter fluorescence, primary and confirmatory, confirmation (AID 624330); assay type: functional
T6 sequence (Q9H0H5 whole entry): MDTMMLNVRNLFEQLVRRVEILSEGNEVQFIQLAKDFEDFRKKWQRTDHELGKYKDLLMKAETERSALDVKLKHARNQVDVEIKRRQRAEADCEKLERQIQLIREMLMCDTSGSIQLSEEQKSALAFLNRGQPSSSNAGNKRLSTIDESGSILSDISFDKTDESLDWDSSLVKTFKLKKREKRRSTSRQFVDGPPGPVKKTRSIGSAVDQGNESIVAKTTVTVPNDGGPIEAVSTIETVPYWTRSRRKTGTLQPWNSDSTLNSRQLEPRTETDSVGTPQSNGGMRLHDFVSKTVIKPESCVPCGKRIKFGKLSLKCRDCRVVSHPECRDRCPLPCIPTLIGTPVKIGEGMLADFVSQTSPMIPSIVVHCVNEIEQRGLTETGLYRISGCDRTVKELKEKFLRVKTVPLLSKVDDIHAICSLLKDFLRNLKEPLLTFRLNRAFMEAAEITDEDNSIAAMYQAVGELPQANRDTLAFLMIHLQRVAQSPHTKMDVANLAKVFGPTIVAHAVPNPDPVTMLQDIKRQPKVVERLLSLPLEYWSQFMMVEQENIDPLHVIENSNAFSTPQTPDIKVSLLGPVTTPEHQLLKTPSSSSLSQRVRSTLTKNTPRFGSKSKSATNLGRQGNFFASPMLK

[11] = HIV-1 Vif–A3G interaction blockers – biochemical, TR-FRET, GST-Vif 1-94, biotin-A3G peptide, dose response retest, primary screen (AID 1117319); assay type: functional;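 further: TR-FRET signal of purified GST-Vif binding a biotinylated A3G peptide; inhibitors lower the FRET signal by blocking Vif and A3G binding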
[12] = target: FAD-linked sulfhydryl oxidase ALR (Homo sapiens, UniProt P55789); test: ALR-catalysed DTT oxidation blockers – biochemical, H2O2 detection, luminescence, cherry-pick, dose response (AID 493248)
[13] = target: RNA-editing ligase 1, mitochondrial (Trypanosoma brucei brucei, UniProt P86926); test: inhibition of trypanosome RNA editing ligase – biochemical, fluorescence, Trypanosoma brucei, dose response (AID 1117295); assay type: functional
[14] = target: T7, Low molecular weight phosphotyrosine protein phosphatase (Homo sapiens, UniProt P24666); test: inhibition of human LMPTP enzyme activity – biochemical, absorbance, pNPP substrate, LMPTP-A isoform, set 2, orthogonal assay, dose response (AID 743308); assay type: functional
T7 sequence (P24666 whole entry): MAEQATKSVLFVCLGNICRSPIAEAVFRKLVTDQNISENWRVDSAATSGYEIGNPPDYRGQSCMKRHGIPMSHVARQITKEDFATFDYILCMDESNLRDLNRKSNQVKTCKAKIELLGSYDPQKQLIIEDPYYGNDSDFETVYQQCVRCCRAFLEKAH

[15] = target: T7, Low molecular weight phosphotyrosine protein phosphatase; test: inhibition of LMPTP-A enzymatic activity – biochemical, OMFP substrate, fluorescence intensity, set 2, dose response (AID 743307); assay type: functional

RNA-editing ligase 1, mitochondrial, sequence (P86926 whole entry, canonical isoform): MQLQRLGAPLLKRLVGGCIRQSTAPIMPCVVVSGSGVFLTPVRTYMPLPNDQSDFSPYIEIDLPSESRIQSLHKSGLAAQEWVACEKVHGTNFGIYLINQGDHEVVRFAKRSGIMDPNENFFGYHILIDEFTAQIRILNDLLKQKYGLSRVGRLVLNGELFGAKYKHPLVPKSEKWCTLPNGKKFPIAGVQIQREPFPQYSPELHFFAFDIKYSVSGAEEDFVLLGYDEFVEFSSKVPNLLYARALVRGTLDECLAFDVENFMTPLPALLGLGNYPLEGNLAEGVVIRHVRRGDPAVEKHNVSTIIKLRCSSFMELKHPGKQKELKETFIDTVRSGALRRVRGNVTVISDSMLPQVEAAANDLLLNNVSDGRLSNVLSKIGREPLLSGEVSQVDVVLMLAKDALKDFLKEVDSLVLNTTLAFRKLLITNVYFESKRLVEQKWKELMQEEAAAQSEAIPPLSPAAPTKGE
Caspase-8, sequence (Q14790 217-374 limits assumed): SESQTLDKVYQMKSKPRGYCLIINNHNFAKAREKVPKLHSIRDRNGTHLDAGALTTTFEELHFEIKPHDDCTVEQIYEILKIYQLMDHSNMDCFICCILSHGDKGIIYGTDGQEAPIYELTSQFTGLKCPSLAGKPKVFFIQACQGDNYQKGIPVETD
Caspase-8, sequence (Q14790 385-479 limits assumed): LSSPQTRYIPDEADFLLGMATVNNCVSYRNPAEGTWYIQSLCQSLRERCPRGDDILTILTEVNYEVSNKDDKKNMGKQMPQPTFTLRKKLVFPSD
Caspase-9, sequence (P55211 1-315 limits assumed): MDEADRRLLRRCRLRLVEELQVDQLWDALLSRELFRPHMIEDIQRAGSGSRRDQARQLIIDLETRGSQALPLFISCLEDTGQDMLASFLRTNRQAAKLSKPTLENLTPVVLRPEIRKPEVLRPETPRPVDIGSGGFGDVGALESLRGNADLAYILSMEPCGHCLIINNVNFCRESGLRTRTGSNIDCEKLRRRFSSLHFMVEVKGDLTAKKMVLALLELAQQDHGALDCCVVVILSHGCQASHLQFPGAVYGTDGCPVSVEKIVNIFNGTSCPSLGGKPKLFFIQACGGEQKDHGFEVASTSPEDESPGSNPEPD
Caspase-9, sequence (P55211 331-416 limits assumed): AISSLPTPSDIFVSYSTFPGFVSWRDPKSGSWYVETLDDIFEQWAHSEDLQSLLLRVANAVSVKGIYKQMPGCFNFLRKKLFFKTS
Cytochrome P450 2D6, sequence (P10635 whole entry): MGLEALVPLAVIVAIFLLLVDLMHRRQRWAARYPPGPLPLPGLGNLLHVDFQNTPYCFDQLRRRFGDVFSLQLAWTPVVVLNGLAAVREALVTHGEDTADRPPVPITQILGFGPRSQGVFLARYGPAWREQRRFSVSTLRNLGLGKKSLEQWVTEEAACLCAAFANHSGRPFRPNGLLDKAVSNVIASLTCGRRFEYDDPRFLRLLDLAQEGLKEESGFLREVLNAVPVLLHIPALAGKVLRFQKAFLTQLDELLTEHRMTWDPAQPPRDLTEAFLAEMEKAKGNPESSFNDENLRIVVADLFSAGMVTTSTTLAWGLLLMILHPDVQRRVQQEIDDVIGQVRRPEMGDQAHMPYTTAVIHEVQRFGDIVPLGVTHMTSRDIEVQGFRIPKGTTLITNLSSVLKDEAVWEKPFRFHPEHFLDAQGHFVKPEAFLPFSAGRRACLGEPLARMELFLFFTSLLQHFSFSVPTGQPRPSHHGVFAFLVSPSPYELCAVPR
Cytochrome P450 2C19, sequence (P33261 whole entry): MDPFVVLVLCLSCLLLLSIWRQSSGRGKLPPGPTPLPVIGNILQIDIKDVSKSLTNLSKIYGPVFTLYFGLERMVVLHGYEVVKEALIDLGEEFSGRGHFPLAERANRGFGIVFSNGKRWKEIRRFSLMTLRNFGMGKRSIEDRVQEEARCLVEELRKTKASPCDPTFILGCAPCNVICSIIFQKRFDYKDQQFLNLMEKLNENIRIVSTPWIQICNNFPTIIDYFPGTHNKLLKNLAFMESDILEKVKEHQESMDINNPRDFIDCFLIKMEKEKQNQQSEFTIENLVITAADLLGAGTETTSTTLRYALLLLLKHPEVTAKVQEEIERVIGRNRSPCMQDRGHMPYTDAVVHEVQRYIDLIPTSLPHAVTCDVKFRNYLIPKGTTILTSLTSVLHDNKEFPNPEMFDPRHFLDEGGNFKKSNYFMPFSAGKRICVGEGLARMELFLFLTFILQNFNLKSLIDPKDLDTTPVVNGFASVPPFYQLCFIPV
FAD-linked sulfhydryl oxidase ALR, sequence (P55789 whole entry): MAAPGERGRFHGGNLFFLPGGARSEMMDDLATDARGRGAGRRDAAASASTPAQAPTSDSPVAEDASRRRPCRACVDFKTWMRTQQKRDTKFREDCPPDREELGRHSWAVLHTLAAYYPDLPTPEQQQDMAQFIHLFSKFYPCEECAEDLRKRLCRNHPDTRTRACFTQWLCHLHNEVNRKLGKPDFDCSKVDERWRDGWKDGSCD
Voltage-gated inwardly rectifying potassium channel KCNH2, sequence (Q12809 whole entry): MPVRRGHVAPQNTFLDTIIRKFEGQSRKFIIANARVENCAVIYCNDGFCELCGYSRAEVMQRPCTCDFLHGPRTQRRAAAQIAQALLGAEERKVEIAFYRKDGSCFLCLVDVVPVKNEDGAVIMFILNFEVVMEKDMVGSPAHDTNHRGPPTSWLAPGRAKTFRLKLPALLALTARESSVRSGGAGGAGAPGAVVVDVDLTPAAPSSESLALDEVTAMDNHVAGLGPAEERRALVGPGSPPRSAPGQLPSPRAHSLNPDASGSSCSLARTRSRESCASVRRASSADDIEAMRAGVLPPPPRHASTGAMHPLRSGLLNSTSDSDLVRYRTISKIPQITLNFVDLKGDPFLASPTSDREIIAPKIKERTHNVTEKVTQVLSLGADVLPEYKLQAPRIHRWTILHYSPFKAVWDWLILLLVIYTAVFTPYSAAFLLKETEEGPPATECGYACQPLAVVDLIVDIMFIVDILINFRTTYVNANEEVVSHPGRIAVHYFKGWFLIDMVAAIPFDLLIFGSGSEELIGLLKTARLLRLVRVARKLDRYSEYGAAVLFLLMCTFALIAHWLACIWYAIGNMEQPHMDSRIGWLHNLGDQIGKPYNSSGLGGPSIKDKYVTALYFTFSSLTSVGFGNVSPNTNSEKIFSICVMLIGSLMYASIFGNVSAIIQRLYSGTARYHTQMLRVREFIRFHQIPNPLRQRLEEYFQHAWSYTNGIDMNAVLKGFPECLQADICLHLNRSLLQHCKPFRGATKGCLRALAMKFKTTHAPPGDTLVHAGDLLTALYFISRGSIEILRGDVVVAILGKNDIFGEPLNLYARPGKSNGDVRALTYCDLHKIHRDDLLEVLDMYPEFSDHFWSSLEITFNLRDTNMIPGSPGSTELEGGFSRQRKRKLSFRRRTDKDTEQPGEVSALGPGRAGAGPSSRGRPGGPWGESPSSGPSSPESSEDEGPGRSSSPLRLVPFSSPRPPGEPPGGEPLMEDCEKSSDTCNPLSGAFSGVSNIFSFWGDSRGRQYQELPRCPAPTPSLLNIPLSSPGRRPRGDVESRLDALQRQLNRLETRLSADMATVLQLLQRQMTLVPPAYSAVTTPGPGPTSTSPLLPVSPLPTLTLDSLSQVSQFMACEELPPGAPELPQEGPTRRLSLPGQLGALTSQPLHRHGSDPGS
Glutathione-S-transferase, sequence (Q26513 whole entry): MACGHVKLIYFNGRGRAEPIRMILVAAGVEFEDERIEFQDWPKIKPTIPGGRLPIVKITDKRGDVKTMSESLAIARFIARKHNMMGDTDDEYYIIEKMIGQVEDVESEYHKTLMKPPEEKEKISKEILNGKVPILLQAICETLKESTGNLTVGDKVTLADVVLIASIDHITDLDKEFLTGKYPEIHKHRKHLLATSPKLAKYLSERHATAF
Cytochrome P450 3A4, sequence (P08684 whole entry): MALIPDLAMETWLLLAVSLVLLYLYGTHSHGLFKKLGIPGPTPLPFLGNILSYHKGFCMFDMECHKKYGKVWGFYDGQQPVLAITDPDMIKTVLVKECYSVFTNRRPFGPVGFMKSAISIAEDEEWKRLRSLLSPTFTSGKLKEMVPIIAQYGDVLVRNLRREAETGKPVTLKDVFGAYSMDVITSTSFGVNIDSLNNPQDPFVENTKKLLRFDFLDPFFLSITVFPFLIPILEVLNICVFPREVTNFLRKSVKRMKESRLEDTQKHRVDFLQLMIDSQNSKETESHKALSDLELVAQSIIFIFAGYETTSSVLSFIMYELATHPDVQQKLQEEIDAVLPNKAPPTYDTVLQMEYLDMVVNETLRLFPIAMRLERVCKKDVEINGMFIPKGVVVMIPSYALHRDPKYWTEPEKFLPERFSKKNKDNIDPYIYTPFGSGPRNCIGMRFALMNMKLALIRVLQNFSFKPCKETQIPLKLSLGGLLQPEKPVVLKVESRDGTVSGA

## Nc1cc2nn(-c3ccccc3)nc2cc1Cl
Caspase-9
  AC50: 29.9 µM (active)
Protein RecA
  EC50: 3.48 µM (active)
[1]
  IC50: > 50 µM (not active)
Caspase-6
  AC50: 2 µM (active)
Caspase-8
  AC50: 12.7 µM (active)
[2]
  AC50: 16.5 µM (active)
[3]
  IC50: > 67.5 µM (inactive)
[4]
  EC50: > 67.5 µM (inactive)

## O=C(Nc1ccc(S(=O)(=O)N2CCCC2)cc1)C1CC(=O)N(c2ccccc2)C1 (configuration not stated)
[5]
  IC50: > 109 µM (inactive)
[6]
  IC50: > 83.3 µM (inactive)

## C=CCn1c(C)c(C(C)=O)c(N2CCN(c3ccccc3)CC2)nc1=S
Cytochrome P450 3A4
  AC50: 25.1 µM (inconclusive)
Cytochrome P450 2C19
  AC50: 5.62 µM (inconclusive)
Cytochrome P450 2D6
  AC50: 22.4 µM (inconclusive)
[7]
  IC50: 19.8 µM (active)

## O=C(NC(=S)Nc1cc(C(F)(F)F)ccc1N1CCOCC1)c1ccco1
[8]
  EC50: 4.72 µM (active)

## CC(C)CSc1oc(-c2ccco2)nc1S(=O)(=O)c1ccccc1
[5]
  IC50: > 109 µM (inactive)
[6]
  IC50: > 83.3 µM (inactive)

## Cc1cc(C)n(-c2nc(NCC(C)O)c3c4c(sc3n2)CCCC4)n1 (configuration not stated)
[9]
  IC50: 15 µM (active)

## COc1cc(/C=N/NC2=NC(=O)C(c3ccccc3)S2)ccc1O (configuration not stated)
[10]
  IC50: 44.3 µM (active)
[11]
  IC50: > 100 µM (active)
[12]
  AC50: 0.249 µM (active)

## CCNC1=NC(c2ccccc2C(F)(F)F)C(C(=O)OC)=C(C)N1Cc1ccc(C(F)(F)F)cc1 (configuration not stated)
[13]
  IC50: > 96.6 µM (inactive)

## Clc1cccc(-c2cc(NCCCN3CCCCC3)c3ccccc3n2)c1
[14]
  IC50: 1.85 µM (active)
[15]
  IC50: 1.12 µM (active)

## COC(=O)C1=C(C)N(Cc2ccc(C(F)(F)F)cc2)C(NCc2ccc3c(c2)OCO3)=NC1c1ccccc1C(F)(F)F (configuration not stated)
[13]
  IC50: > 96.6 µM (inactive)

## CC(C)CNc1nc(-c2ccccc2)nc2ccccc12
[14]
  IC50: 58.5 µM (inactive)
[15]
  IC50: 14.5 µM (active)
